Source: ChEMBL document CHEMBL5331124, “Degradation of Hexokinase 2 Blocks Glycolysis and Induces GSDME-Dependent Pyroptosis to Amplify Immunogenic Cell Death for Breast Cancer Therapy” (J Med Chem, 2023)
The source made the active and inactive calls. No cut-off for these calls is given here.

What was measured:
MDA-MB-231 [1] = experiment: Antitumor activity against human MDA-MB-231 cells xenografted in BALB/c nude mouse assessed as increase in cleaved caspase-3 level at 50 mg/kg, ip measured after 28 days; type: functional, organism-based; details: time 28.0 day
[2] = Toxicity in BALB/c mouse implanted with mouse 4T1 cells assessed as effect on hemoglobin level at 50 mg/kg, ip measured after 25 days by routine blood test; type: organism-based; details: in vivo, 600 h, time 25 day
[3] = target: T1, Protein cereblon/Hexokinase-2 (Mus musculus) (UniProt O08528+Q8C7D2); experiment: PROTAC activity at CRBN/HK2 in mouse 4T1 cells assessed as […] ternary complex formation at 10 uM incubated for 24 hrs in presence of MG132; type: cell-based
4T1 [4] = experiment: Antitumor immunity against mouse 4T1 cells implanted in BALB/c mouse model assessed as downregulation of IL-10 expression in mouse tumor by ELISA analysis; type: functional, cell-based
[5] = target: T2, Hexokinase-2 (Mus musculus) (UniProt O08528); experiment: Induction of HK2 degradation in mouse 4T1 cells at 20 uM measured upto 18 hrs by Western blot analysis; type: cell-based
T2 sequence (whole entry): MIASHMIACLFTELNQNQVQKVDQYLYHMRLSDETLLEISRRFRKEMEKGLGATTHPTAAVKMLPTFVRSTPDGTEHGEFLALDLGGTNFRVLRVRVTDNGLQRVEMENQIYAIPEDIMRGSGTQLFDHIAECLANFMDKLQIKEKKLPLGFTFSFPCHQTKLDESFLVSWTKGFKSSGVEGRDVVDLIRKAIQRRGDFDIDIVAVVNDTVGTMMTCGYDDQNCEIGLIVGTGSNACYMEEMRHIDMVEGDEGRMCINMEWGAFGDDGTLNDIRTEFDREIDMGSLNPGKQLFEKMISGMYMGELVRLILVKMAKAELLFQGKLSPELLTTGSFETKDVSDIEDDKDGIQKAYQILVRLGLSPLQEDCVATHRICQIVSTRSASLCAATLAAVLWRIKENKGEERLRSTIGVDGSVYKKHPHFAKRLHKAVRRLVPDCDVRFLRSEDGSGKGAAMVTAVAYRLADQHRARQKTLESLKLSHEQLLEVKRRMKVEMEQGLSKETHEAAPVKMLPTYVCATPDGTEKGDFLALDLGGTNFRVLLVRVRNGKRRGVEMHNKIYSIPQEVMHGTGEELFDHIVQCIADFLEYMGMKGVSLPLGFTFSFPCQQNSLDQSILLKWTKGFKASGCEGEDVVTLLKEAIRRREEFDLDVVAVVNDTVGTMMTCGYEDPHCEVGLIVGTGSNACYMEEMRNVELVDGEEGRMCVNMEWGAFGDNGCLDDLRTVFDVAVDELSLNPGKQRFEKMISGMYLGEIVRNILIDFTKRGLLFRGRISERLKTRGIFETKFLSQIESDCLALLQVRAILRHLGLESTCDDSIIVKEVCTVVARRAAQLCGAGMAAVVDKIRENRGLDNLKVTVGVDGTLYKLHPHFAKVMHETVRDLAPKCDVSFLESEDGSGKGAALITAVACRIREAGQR

[6] = Toxicity in BALB/c mouse implanted with mouse 4T1 cells assessed as pathological changes in kidney at 50 mg/kg, ip measured after 25 days in presence of cisplatin by Hematoxylin -eosin staining based analysis; type: organism-based; details: in vivo, 600 h, time 25 day
4T1 [7] = experiment: Induction of mitochondrial damage in mouse 4T1 cells assessed as reduction in lactic acid production at 20 uM measured for 36 hrs; type: functional, cell-based
HGC-27 = experiment: Antiproliferative activity against human HGC-27 cells assessed as cell growth inhibition measured for 72 hrs by MTT assay; type: functional, cell-based; details: HGC-27, 72 h
4T1 [8] = experiment: Antitumor immunity against mouse 4T1 cells implanted in BALB/c mouse model assessed as reduction tumor cell proliferation at 50 mg/kg, ip measured after 25 days by Ki67 staining based analysis; type: functional, organism-based; details: time 25.0 day
4T1 [9] = experiment: Potency index, ratio of IC50 for lonidamine to test compound IC50 for mouse 4T1 cells assessed as cell growth inhibition measured for 72 hrs by MTT assay; type: functional
4T1 [10] = experiment: Antiproliferative activity against mouse 4T1 cells assessed as cell growth inhibition measured for 72 hrs by MTT assay; type: functional, cell-based; details: 4T1, 72 h
[11] = Toxicity in BALB/c mouse implanted with mouse 4T1 cells assessed as change in body weight at 50 mg/kg, ip measured after 23 days in presence of cisplatin; type: organism-based; details: in vivo, 552 h, time 23 day
4T1 [12] = experiment: Induction of mitochondrial damage in mouse 4T1 cells assessed as increase in ROS generation at 20 uM measured for 36 hrs by Hoechst 33342 staining based confocal fluorescence microscopic analysis; type: functional, cell-based
MDA-MB-231 [13] = experiment: Antitumor immunity against human MDA-MB-231 cells xenografted in BALB/c nude mouse at 50 mg/kg, ip measured after 28 days; type: functional, organism-based; details: time 28.0 day
[14] = Toxicity in BALB/c nude mouse xenografted with human MDA-MB-231 cells assessed as effect on red blood cells at 50 mg/kg, ip measured after 30 days by routine blood test; type: organism-based; details: in vivo, 720 h, time 30 day
4T1 [15] = experiment: Antitumor activity against mouse 4T1 cells implanted in BALB/c mouse model assessed as nucleus damage at 50 mg/kg, ip measured after 25 days by TUNEL staining based analysis; type: functional, organism-based; details: time 25.0 day
4T1 [16] = experiment: Inhibition of glycolysis in mouse 4T1 cells assessed as reduction in extracellular acidification rate at 20 uM incubated for 1 to 4 hrs by seahorse analyzer method; type: functional, cell-based; details: time 1-4 hrs
[17] = Toxicity in BALB/c mouse implanted with mouse 4T1 cells assessed as effect on platelet count at 50 mg/kg, ip measured after 25 days in presence of cisplatin by routine blood test; type: organism-based; details: in vivo, 600 h, time 25 day
[18] = Toxicity in BALB/c nude mouse xenografted with human MDA-MB-231 cells assessed as body weight loss at 50 mg/kg, ip measured after 30 days; type: organism-based; details: in vivo, 720 h, time 30 day
[19] = Toxicity in BALB/c mouse implanted wth mouse 4T1 cells assessed as effect on body weight at 50 mg/kg, ip measured after 23 days; type: organism-based; details: in vivo, 552 h, time 23 day
4T1 [20] = experiment: Induction of pyroptosis in mouse 4T1 cells assessed as […] in cleaved caspase-3 level at 20 uM incubated for 36 hrs; type: functional, cell-based
[21] = Toxicity in BALB/c nude mouse xenografted with human MDA-MB-231 cells assessed as effect on platelet count at 50 mg/kg, ip measured after 30 days by routine blood test; type: organism-based; details: in vivo, 720 h, time 30 day
[22] = Toxicity in BALB/c mouse implanted with mouse 4T1 cells assessed as effect on hemoglobin level at 50 mg/kg, ip measured after 25 days in presence of cisplatin by routine blood test; type: organism-based; details: in vivo, 600 h, time 25 day
[23] = Toxicity in BALB/c mouse implanted with mouse 4T1 cells assessed as pathological changes in kidney at 50 mg/kg, ip measured after 25 days by Hematoxylin -eosin staining based analysis; type: organism-based; details: in vivo, 600 h, time 25 day
4T1 [24] = experiment: Upregulation of PD-L1 expression in mouse 4T1 cells cytoplasm at 20 uM measured for 36 hrs; type: functional, subcellular
[25] = target: T1, Protein cereblon/Hexokinase-2 (Mus musculus); experiment: PROTAC activity at CRBN/HK2 in mouse 4T1 cells assessed as HK2 degradation at 20 uM incubated for 36 hrs; type: cell-based

T1 sequence (Q8C7D2 whole entry, looked up, one chain of several): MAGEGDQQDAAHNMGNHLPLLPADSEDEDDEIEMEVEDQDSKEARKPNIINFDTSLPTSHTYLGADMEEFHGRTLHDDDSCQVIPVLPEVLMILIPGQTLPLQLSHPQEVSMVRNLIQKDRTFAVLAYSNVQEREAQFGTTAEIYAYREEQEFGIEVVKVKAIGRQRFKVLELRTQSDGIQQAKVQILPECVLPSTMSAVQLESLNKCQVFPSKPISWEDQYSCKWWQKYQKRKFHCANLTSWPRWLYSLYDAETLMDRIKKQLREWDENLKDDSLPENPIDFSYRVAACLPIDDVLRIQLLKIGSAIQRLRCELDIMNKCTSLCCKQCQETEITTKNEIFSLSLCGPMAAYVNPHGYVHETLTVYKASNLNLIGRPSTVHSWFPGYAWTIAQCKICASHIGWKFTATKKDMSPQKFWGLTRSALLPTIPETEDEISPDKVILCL

For `O=C1CCC(N2C(=O)c3cccc(NCCCCNC(=O)c4nn(Cc5ccc(Cl)cc5Cl)c5ccccc45)c3C2=O)C(=O)N1` (stereo unspecified), the Activity (MDA-MB-231 [1]) was “Active”, the Activity [2] was “Non-Toxic” and the Activity [3] was “inactive”. The Activity (4T1 [4]) was “Active”, the Activity [5] was “Active” and the Activity [6] was “Non-Toxic”. For the same compound, the Activity (4T1 [7]) was “Active”, the IC50 (HGC-27) was 6.11 µM and the Activity (4T1 [8]) was “Active”. For the same compound, the “Ratio IC50” value (4T1 [9]) was 30.1, the IC50 (4T1 [10]) was 5.08 µM and the Activity [11] was “Non-Toxic”. For the same compound, the Activity (4T1 [12]) was “Active”, the Activity (MDA-MB-231 [13]) was “inactive” and the Activity [14] was “Non-Toxic”. The Activity (4T1 [15]) was “Active”, the inhibition (4T1 [16]) was “Active” and the Activity [17] was “Non-Toxic”. For the same compound, the Activity [18] was “Non-Toxic”, the Activity [19] was “Non-Toxic” and the Activity (4T1 [20]) was “Active”. The Activity [21] was “Non-Toxic”, the Activity [22] was “Non-Toxic” and the Activity [23] was “Non-Toxic”. For the same compound, the Activity (4T1 [24]) was “Active” and the Activity [25] was “Active”.
